Laboratory results: patent US20200332222A1, “MUSK COMPOSITIONS AND METHODS OF USE THEREOF” (TAKASAGO INTERNATIONAL CORPORATION (USA), priority 2015, published 2020)

Assays:
salivary alpha-amylase = experiment: Salivary alpha-amylase before vs after timed ten minute mathematical/word stress test, fragrance inhaled; type: in vivo, human; settings: for Salivary Amylase Data (change before vs after stress test): Table 6, about 10-15 panelists, DPG control +60.7%; for Percent change in salivary alpha-amylase: solvent only control 66.8%
Method: Fourteen female panelists age 30-45 participated in this study. Stress was induced using a timed ten minute mathematical/word test in a small group competition setting. Fragrance was introduced at intervals during the stress test. Saliva was collected before (Pre) and immediately after (Post) the stress test. Saliva samples were assayed for salivary alpha-amylase using a commercially available kinetic reaction assay kit and for salivary cortisol using a highly sensitive enzyme immunoassay kit (Salimetrics®, State College, Pa.). […]
(§1) Saliva was collected before (Pre) and immediately after (Post) the stress test. Saliva samples were assayed for salivary alpha-amylase using a commercially available kinetic reaction assay kit and for salivary cortisol using a highly sensitive enzyme immunoassay kit (Salimetrics®, State College, Pa.).

salivary cortisol = experiment: Salivary cortisol before vs after timed ten minute mathematical/word stress test, fragrance inhaled; type: in vivo, human; settings: for Cortisol Data (change before vs after stress test): Table 6, about 10-15 panelists, DPG control −10.9%
Text: Salivary cortisol is widely used as a biomarker for stress. The purpose of this study was to investigate the influence of individual fragrance compounds, particularly musk compounds, on a subject's cortisol levels before and after exposure to a stressor. The subject sniffed each musk compound, then was exposed to a stressor. The goal was to identify one or more specific musk compounds which caused the least amount of change in cortisol levels or decreased a subject's cortisol levels compared to before administration, thereby reducing or inhibiting a response to stress stimuli. […]
Stress was induced in a number of panelists (about 10-15) for each tested compound using a timed ten minute mathematical/word test in a small group competition setting. The test compound was introduced at intervals during the stress test.
Saliva was collected before and immediately after the stress test. Saliva samples were assayed for salivary cortisol levels and salivary alpha-amylase activity using a commercially available kinetic reaction assay kit (Salimetrics®, State College, Pa.). […]
as §1

[1] = Chassis-air partition coefficient of accord components; type: physicochemical; settings: BC-162 shampoo chassis
Text: The chassis-air partition coefficient can be measured for materials in various chassis.
Ki,chassis-air is the chassis-air partition coefficient for component i in the fragrance formula
Ci, chassis is the concentration of component i in the product formula chassis in molarity, M
Ci, air is the concentration of component i in the headspace air in equilibrium with the formula chassis in molarity, M
For the “Example Accord” in the BC-162 shampoo chassis components, the log chassis-air partition coefficients are as listed in Table 11.

[2] = as above; type: physicochemical
brain waves = experiment: Contingent Negative Variant (CNV) analysis of brain waves recorded by EEG; type: in vivo, human; settings: Example 9; Musk T 10% by weight in DPG
Method: Contingent Negative Variant (CNV) analysis was conducted on brain waves recorded from subjects using EEG (electroencephalography) in the presence of the musk fragrance compound. CNV analysis is summarized in Okazaki et al., Proceedings of the 13th International Congress of Flavours, Fragrances and Essential Oils, 15-19 Oct. 1995.

[3] = Table 4, macrocyclic musks, 12-14 female panelists age 30-45, before vs immediately after stress test
[4] = Table 5, non-macrocyclic musks, methods as Example 6

logK, BC162 (log chassis-air partition coefficient) [1] | logK, APDO Soft Solid (log chassis-air partition coefficient) [2] | Structure (SMILES) | Salivary Amylase Data (change before vs after stress test) (salivary alpha-amylase) | Cortisol Data (change before vs after stress test) (salivary cortisol) | Percent change in salivary alpha-amylase (salivary alpha-amylase; [3]) [%] | also measured
 |  | CC(=O)C(C)CC[C@H]1CCC(C)C1(C)C (stereo partly drawn) [3-methyl-5-((1R)-2,2,3-trimethylcyclopentyl)pentan-2-one] | −6.1% | −16.5% |  | 
 |  | O=C1CCCC=CCCCCCCCCCC1 [Ambretone ®, 5-Cyclohexadecen-1-one] |  |  | 36.9 | 
 |  | O=C1CCCCC=CCCCCCCCCCO1 [Ambrettolide, 17-oxacycloheptadec-6-en-1-one] | +13.16% | −11.25% | 13.1 | 
5.356 | 6.729 | O=C1CCCCCCCCCCCCCCO1 [EXALTOLIDE, 16-oxacyclohexadecan-1-one] |  |  |  | 
5.505 | 6.693 | O=C1CCCCCCCCC/C=C/CCCO1 [Habanolide, (12E)-1-oxacyclohexadec-12-en-2-one] | +4.67% | −20.6% | 4.7 | 
 |  | CC1=CCC(C/C=C(\C)CO)C1(C)C (stereo not shown) [Hindinol, (E)-2-methyl-4-(2,2,3-trimethyl-1-cyclopent-3-enyl)but-2-en-1-ol] | +82.3% | −25.0% |  | Percent change in salivary alpha-amylase (salivary alpha-amylase; [4]): 82.3%
 |  | CC1CCCCCCCCCCCCC(=O)C1 [L-Muscone] | +14.5% | +25.6% |  | 
5.780 | 6.970 | O=C1CCCCCCCCCOCCCCCO1 [MUSK RI, 11-Oxahexadecan-16-olide] |  |  |  | 
6.345 | 7.306 | O=C1CCCCCCCCCCCC(=O)OCCO1 [Musk T ®, ethylene brassylate] |  |  | 47.1 | Pre vs. Post salivary alpha-amylase level, increase in response to stress test (salivary alpha-amylase; Example 8, FIG. 3, Musk T 2.5% by weight in fragrance (floral fragrance/Musk T 75/25 admixture, 10% in DPG), DPG alone 120%): 38%; Pre vs. Post salivary alpha-amylase level, increase in response to stress test (salivary alpha-amylase; Example 9, FIG. 5, Musk T 10% by weight in DPG, DPG alone 161%): 47%; Pre vs. Post salivary cortisol level, decrease in response to stress test (salivary cortisol; Example 8, FIG. 4, Musk T 2.5% by weight in fragrance (floral fragrance/Musk T 75/25 admixture, 10% in DPG), DPG alone increased 24%): 8%; Pre vs. Post salivary cortisol level, increase in response to stress test (salivary cortisol; Example 9, FIG. 6, Musk T 10% by weight in DPG, DPG alone 41%): 10%; increase in the level of relaxation, CNV analysis of brain waves (brain waves): 32.5%
7.809 | 6.135 | CC(=O)CCc1ccc(O)cc1 [PARA HYDROXY PHENYL BUTANONE] |  |  |  | 
 |  | CC(=O)c1cc2c(cc1C)C(C)(C)C(C)C2(C)C (stereo not shown) [Phantolide, 1-(1,1,2,3,3,6-hexamethyl-2H-inden-5-yl)ethanone] | −19.2% | −12.3% |  | 
 |  | CC(=O)OC(C)C1CCCC(C)(C)C1 (stereo not shown) [Rosamusk, 1-(3,3-dimethylcyclohexyl)ethyl acetate] | −15.2% | +6.68% |  | Pre vs. Post salivary alpha-amylase level, decrease in response to stress test (salivary alpha-amylase; Example 10, FIG. 7, Rosamusk 10% by weight in DPG, DPG alone increased 33%): 15%; Pre vs. Post salivary cortisol level, increase in response to stress test (salivary cortisol; Example 10, FIG. 8, Rosamusk 10% by weight in DPG, DPG alone 25%): 7%
 |  | CCOC(=O)[C@@H]1[C@@H](C)CCCC1(C)C [ethyl (1R,6S)-2,2,6-trimethylcyclohexane-1-carboxylate] |  |  |  | Percent change in salivary alpha-amylase (salivary alpha-amylase; [4]): 70.7%
